pEC50, pKi: −log10 of the molar value. Read-outs that look alike come from different tables or passages of the source. One block for each compound: values may come before it. Bridge positions count the residues as written; N and C are the ends. Square brackets hold non-standard residues; d marks the D form. Peptide text beside a SMILES is read from it. GABA = NCCCC(=O)O; βAla = NCCC(=O)O
Legend:
hMC4-R [1] = target: T1, hMC4-R (Homo sapiens, UniProt P32245); experiment: cyclic AMP bioassay (ECL) in CHO-K1 cells; type: cell-based
T1 construct: expressed in transfected cells; host or cells: CHO-K1
T1 sequence (P32245 whole entry): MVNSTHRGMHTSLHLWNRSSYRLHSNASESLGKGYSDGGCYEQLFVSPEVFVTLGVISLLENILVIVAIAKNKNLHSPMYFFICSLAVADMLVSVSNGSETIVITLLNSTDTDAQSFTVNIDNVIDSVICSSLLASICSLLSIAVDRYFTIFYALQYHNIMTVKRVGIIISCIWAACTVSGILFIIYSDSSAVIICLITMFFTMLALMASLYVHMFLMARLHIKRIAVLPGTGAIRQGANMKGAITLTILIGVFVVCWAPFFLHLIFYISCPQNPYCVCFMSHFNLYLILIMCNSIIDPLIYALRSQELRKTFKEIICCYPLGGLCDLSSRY

hMC3-R [2] = target: T2, hMC3-R (Homo sapiens, UniProt P41968); experiment: cyclic AMP bioassay (ECL) in CHO-K1 cells; type: cell-based
T2 construct: expressed in transfected cells; host or cells: CHO-K1
T2 sequence (P41968 whole entry): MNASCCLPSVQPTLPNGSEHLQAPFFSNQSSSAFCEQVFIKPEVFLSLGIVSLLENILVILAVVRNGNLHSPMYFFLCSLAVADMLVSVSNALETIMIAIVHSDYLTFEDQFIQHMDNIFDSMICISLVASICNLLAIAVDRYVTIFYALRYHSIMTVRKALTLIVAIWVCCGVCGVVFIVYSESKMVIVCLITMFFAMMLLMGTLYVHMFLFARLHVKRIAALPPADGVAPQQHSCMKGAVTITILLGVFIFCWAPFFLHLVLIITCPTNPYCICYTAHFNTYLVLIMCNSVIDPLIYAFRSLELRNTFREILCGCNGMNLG

hMC1-R [3] = target: T3, hMC1-R (Homo sapiens, UniProt Q01726); experiment: cyclic AMP bioassay (ECL) in CHO-K1 cells; type: cell-based
T3 construct: expressed in transfected cells; host or cells: CHO-K1
T3 sequence (Q01726 whole entry): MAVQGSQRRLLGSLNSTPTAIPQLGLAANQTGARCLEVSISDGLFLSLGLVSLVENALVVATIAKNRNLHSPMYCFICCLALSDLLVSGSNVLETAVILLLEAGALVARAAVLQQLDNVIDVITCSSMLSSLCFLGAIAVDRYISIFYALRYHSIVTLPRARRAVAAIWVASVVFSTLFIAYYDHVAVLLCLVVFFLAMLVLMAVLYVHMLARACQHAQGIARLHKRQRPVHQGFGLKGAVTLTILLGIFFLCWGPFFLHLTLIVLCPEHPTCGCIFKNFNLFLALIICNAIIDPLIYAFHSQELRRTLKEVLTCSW

hMC5-R [4] = target: T4, hMC5-R (Homo sapiens, UniProt P33032); experiment: cyclic AMP bioassay (ECL) in CHO-K1 cells; type: cell-based
T4 construct: expressed in transfected cells; host or cells: CHO-K1
T4 sequence (P33032 whole entry): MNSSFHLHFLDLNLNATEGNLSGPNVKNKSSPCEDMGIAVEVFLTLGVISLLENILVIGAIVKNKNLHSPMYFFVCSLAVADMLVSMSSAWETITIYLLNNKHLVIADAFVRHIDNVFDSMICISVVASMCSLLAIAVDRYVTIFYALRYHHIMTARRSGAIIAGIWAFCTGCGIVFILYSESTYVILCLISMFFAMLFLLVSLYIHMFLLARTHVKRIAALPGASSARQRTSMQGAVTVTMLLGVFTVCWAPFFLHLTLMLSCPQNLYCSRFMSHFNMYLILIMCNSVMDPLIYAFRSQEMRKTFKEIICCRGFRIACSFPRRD

hMC5-R [5] = target: T4, hMC5-R; experiment: Radioligand binding assay, [125I]-NDP-α-MSH competition, CHO-K1 membranes; conditions: Table 5
Experimental: (§1) Cellular membranes used for the in vitro receptor binding assays were obtained from transgenic CHO-K1 cells stably expressing hMC-R receptor subtypes 1, 3, 4 or 5. […] The pellets were resuspended in the same buffer and centrifuged at 50,000 g for 10 minutes at approximately 4° C. The washed pellets containing the cellular membranes were stored at approximately −80° C.
(§2) Cell membranes (1-10 μg protein/well) prepared as described above were incubated in 50 mM Tris-HCl at pH 7.4 containing 0.2% bovine serum albumin (BSA), 5 mM MgCl2, 1 mM CaCl2 and 0.1 mg/mL bacitracin, with increasing concentrations of the test compound and 0.1-0.3 nM [^25I]-NDP-α-MSH for approximately 90-120 minutes at approximately 37° C. […] Filters were washed three times with 50 mM Tris-HCl at pH 7.4 at a temperature of approximately 0-4° C. and then assayed for radioactivity using a Packard Topcount® scintillation counter. Binding data were analyzed by computer-assisted non-linear regression analysis (XL fit; IDBS).

hMC4-R [6] = target: T1, hMC4-R; experiment: as above
Experimental: as §1, §2

hMC1-R [7] = target: T3, hMC1-R; experiment: as above
Experimental: as §1, §2

hMC3-R [8] = target: T2, hMC3-R; experiment: as above; conditions: Table 5
Experimental: as §1, §2

[9] = Table 9A/9B, read-out: EC50 hMC4-R
[10] = Table 9A/9B, read-out: EC50 hMC3-R
[11] = Table 9A/9B, read-out: EC50 hMC1-R
[12] = Table 9A/9B, read-out: EC50 hMC5-R

SMILES: CCCC[C@H](NC(C)=O)C(=O)N[C@H]1CSSC[C@@H](C(N)=O)NC(=O)[C@H](Cc2c[nH]c3ccccc23)NC(=O)[C@H](CCCNC(=N)N)NC(=O)[C@@H](Cc2ccc3ccccc3c2)NC(=O)[C@H](Cc2c[nH]cn2)NC(=O)[C@@H](C)NC1=O [Ac-Nle-c(Cys-D-Ala-His-D-2-Nal-Arg-Trp-Cys)-NH2]
Kb (hMC4-R [1]): 38.8 nM | Kb (hMC3-R [2]): 12.4 nM | pEC50 (hMC1-R [3]): 7.75 | pEC50 (hMC5-R [4]): 7.93 | pKi (hMC5-R [5]; Ki hMC5-R): 6.99 | pKi (hMC4-R [6]; Ki KMC4-R, Table 5): 8.12

SMILES: CCCC[C@H](NC(C)=O)C(=O)N[C@H]1CSSC(C)(C)[C@@H](C(N)=O)NC(=O)[C@H](Cc2c[nH]c3ccccc23)NC(=O)[C@H](CCCNC(=N)N)NC(=O)[C@@H](Cc2ccccc2)NC(=O)[C@H](Cc2c[nH]cn2)NC(=O)[C@@H](C)NC1=O [Ac-Nle-c(Cys-D-Ala-His-D-Phe-Arg-Trp-Pen)-NH2]
pEC50 (hMC4-R [1]): 9.74 | pEC50 (hMC3-R [2]): 8.69 | pEC50 (hMC1-R [3]): 7.84 | pEC50 (hMC5-R [4]): 5.65 | pKi (hMC1-R [7]; Ki hMC1-R, Table 5): 7.54 | pKi (hMC3-R [8]; Ki hMC3-R): 7.64

SMILES: CCCC[C@H](NC(C)=O)C(=O)N[C@H]1CSSC(C)(C)[C@@H](C(=O)O)NC(=O)[C@H](Cc2c[nH]c3ccccc23)NC(=O)[C@H](CCCNC(=N)N)NC(=O)[C@@H](Cc2ccccc2)NC(=O)[C@H](Cc2c[nH]cn2)NC(=O)[C@@H](C)NC1=O [Ac-Nle-c(Cys-D-Ala-His-D-Phe-Arg-Trp-Pen)-OH]
pKi (hMC5-R [5]; Ki hMC5-R): 6.78 | pKi (hMC4-R [6]; Ki KMC4-R, Table 5): 7.76

SMILES: CCCC[C@H](NC(C)=O)C(=O)N[C@H]1CSSC[C@@H](C(N)=O)NC(=O)[C@H](Cc2c[nH]c3ccccc23)NC(=O)[C@H](CCCNC(=N)N)NC(=O)[C@@H](Cc2ccccc2)NC(=O)[C@H](Cc2c[nH]cn2)NC(=O)[C@@H](CC2CCCCC2)NC1=O [Ac-Nle-c(Cys-D-Cha-His-D-Phe-Arg-Trp-Cys)-NH2]
pEC50 (hMC4-R [1]; [9]): 9.34 | pEC50 (hMC3-R [2]; [10]): 9.27 | pEC50 (hMC1-R [3]; [11]): 9.09 | pEC50 (hMC5-R [4]; [12]): 7.34 | pKi (hMC3-R [8]; read-out: Ki hMC3-R): 8.68

Continued, values first:

pKi (hMC5-R [5]; read-out: Ki hMC5-R): 7.40 | pKi (hMC3-R [8]; read-out: Ki hMC3-R): 6.98
SMILES: CCCC[C@H](NC(C)=O)C(=O)N[C@H]1CSSC[C@@H](C(N)=O)NC(=O)[C@H](Cc2c[nH]c3ccccc23)NC(=O)[C@H](CCCNC(=N)N)NC(=O)[C@@H](Cc2ccccc2)NC(=O)[C@H](Cc2c[nH]cn2)NC(=O)[C@@H](C(C)C)NC1=O [Ac-Nle-c(Cys-D-Val-His-D-Phe-Arg-Trp-Cys)-NH2]

pEC50 (hMC4-R [1]; [9]): 9.96 | pEC50 (hMC3-R [2]; [10]): 8.96 | pEC50 (hMC1-R [3]; [11]): 9.46 | pEC50 (hMC5-R [4]; [12]): 9.43 | pKi (hMC1-R [7]; Table 5, read-out: Ki hMC1-R): 10.30 | pKi (hMC5-R [5]; read-out: Ki hMC5-R): 8.54 | pKi (hMC3-R [8]; read-out: Ki hMC3-R): 8.03
SMILES: CCOc1ccc(C[C@H]2NC(=O)[C@H](Cc3c[nH]cn3)NC(=O)[C@@H](NC(=O)[C@H](N)Cc3ccccc3)CSSC[C@H](C(=O)N[C@H](C(N)=O)[C@@H](C)O)NC(=O)CCNC(=O)[C@H](Cc3c[nH]c4ccccc34)NC(=O)[C@H](CCCNC(=N)N)NC2=O)cc1 [D-Phe-c(Cys-His-D-(Et)Tyr-Arg-Trp-β-Ala-D-Cys)-Thr-NH2] (H-[dF]CH[dY](Et)RW[βAla][dC]T-NH2; disulfide 2-8)

pKi (hMC3-R [8]; read-out: Ki hMC3-R): 7.82
SMILES: N=C(N)NCCC[C@@H]1NC(=O)[C@@H](Cc2ccccc2)NC(=O)[C@H](Cc2c[nH]cn2)NC(=O)[C@@H](NC(=O)[C@@H](N)Cc2ccccc2)CSSC[C@@H](C(N)=O)NC(=O)CCCNC(=O)[C@H](Cc2c[nH]c3ccccc23)NC1=O [Phe-c(Cys-His-D-Phe-Arg-Trp-Gaba-Cys)-NH2] (H-FCH[dF]RW[GABA]C-NH2; disulfide 2-8)

pEC50 (hMC4-R [1]; Table 11, read-out: EC50 hMC4): 8.67 | pEC50 (hMC3-R [2]; Table 11, read-out: EC50 hMC3): 7.31 | pKi (hMC1-R [7]; Table 7, read-out: Ki hMC1): 7.18 | pKi (hMC4-R [6]; Table 7, read-out: Ki hMC4): 7.70
SMILES: C[C@@H]1C(=O)N[C@@H](Cc2cnc[nH]2)C(=O)N[C@H](Cc2ccccc2)C(=O)N[C@@H](CCCNC(=N)N)C(=O)N[C@@H](Cc2c[nH]c3ccccc23)C(=O)N[C@H](C(N)=O)CNC(=O)C[C@@H]2NC(=O)N1C2=O [c[Hydantoin(C(O)-(Asp-D-Ala))-His-D-Phe-Arg-Trp-Dap]-NH2]

Source: patent publication US20120135923A1, “Use of Melanocortins to Treat Dyslipidemia” (IPSEN PHARMA, S.A.S., priority 2009, published 2012)
